Data: patent publication EP0869969B1, “PEPTIDE CONJUGATES, USE THEREOF AS A DRUG, AND COMPOSITIONS CONTAINING them” (INSTITUT EUROPEEN DE BIOLOGIE CELLULAIRE, priority 1995, dated 2003)
Where “and” joins values, the source holds several entries; their conditions need not be identical. Equal entries are not always repeated. Starred links: 1 amine or outer side, 2 acyl side, 3 side chain; linkers in the order of their positions; H or OH if unused. Residues, ends and D or L forms follow the SMILES beside them. Adipoyl = O=C(CCCCC(=O)[*:2])[*:1]

Columns and labels:
[1] = system: rat-OFA; assay: Wound-healing power in the rat: sutured flank incision, topical application, scar resistance to stretching by dynamometer; assay type: in vivo; conditions: for augmentation de la cicatrisation des plaies par rapport aux témoins: 5 jours; for Résistance des cicatrices à l'étirement, Moyenne: mean of treated group (control 24,5 +/- 1,5)
Method: Déterminer le pouvoir cicatrisant du peptide n° 7 administré chez le rat-OFA par applications topiques aux doses de 0,75 µg, 7,5 µg et 75 µg par animal pendant cinq jours.
I - Animaux : rats de souche OFA, OF1, IFFA-CREDO, pesant de 250 à 300 g.
Conjugué peptidique n° 7, correspondant la formule : Adipoyl-Lys-Lys-Gly-His-Lys-NH2.
Mis en solution dans le propylène glycol aux doses de 1,5 µg/ml, 15 µg/ml, 150 µg/ml.
Après anesthésie générale à l'éther, une incision de 5 cm de long a été pratiquée sur la flanc droit des animaux.
Une suture en fil trinyl 2/0 a été effectuée à raison d'un point tous les 0,5 cm.
Les animaux traités comme les témoins ont subi la même intervention dans les mêmes conditions.
Le traitement a débuté le lendemain de l'intervention sur les lots d'animaux traités aux doses de 0,5 ml de solution peptidique sur chaque incision.
Soit 0,75 µg, 7,5 µg et 75 µg de peptide par animal et par application pendant la durée du traitement, soit 5 jours.
Les animaux ont été mis en observation pendant 9 jours, ils ont ensuite été sacrifiés par une dose létale de penthiobarbital.
Les zones de peau en cours de cicatrisation ont été prélevées et soumises aux "tests" d'étirement au dynamomètre, pour mesurer la résistance de la cicatrice à l'étirement.
Une analyse statistique a été effectuée sur les valeurs de résistance obtenue au dynamomètre. Une analyse de variance et un test de "T" student a été pratiqué sur les valeurs individuelles, afin de définir le seuil de signification des résultats.

[2] = system: fibroblastes humains de plastie mammaire; assay: Type I collagen synthesis by cultured primary fibroblasts, secondary immunofluorescence (rhodamine/TRITC); assay type: cell-based, humain
Excerpt: (§1) La mise en évidence de l'influence du conjugué n' 7 sur la synthèse de collagène de type I par des cellules en culture a été réalisée sur deux types cellulaires : • des fibroblastes humains de plastie mammaire au 3ème passage, obtenus dans notre laboratoire de culture cellulaire à l'IEB, • des MRC5, fibroblastes de poumon embryonnaire humain non transformés au passage p38, obtenus à p 25-30 chez ICN FLOW.
(§2) Les cellules sont stimulées ou non avec le conjugué n° 7, puis elles sont observées au microscope pholoniquc à fluorescence après révélation du collagène de type I par une réaction d'immuno-fluorescence secondaire.
(§3) Les cellules sont ensemencées à raison de 70 000 cellules par ml pour les fibroblastes de primoculture et 20 000 pour les MRC5.
(§4) La culture est réalisée en DMEM 10% SVF dans les tubes de Leigton contenant une lamelle dans le fond du tube, volume final : 1,6 ml.
8 tubes sont prévus par type cellulaire : 3 témoins et 5 concentrations.
Ces différentes solutions mères seront ajoutées au milieu de culture au moment du contact produit.
Les dilutions sont réalisées dans du PBS (Eurobio) - BSA 0,1% (Flucka) puis filtrées sur filtres 0,22 µm (Sartorius).
A J0, le milieu est éliminé et remplacé par du milieu frais auquel est ajouté le conjugué n° 7 aux différentes concentrations selon le tableau suivant :
Les témoins TO et T ne reçoivent que du milieu.
Le milieu est élimine; les tubes sont rincés 3 fois avec du DMEM sans sérum à 37° C. Les cellules sont fixées 20 mn à 4°C en présence de PFA 2,5% (Prolabo) dans du Hanks (Eurobio).
3 rinçages en DMEM sans sérum sont effectués suivis de 2 lavages 10 mn en PBS sans calcium ni magnésium (Eurobio). […]
(§5) Les observations microscopiques sont réalisées sur un microscope droit à fluorescence Zeiss (Axioplan), surmonté d'une caméra 3 CCD Sony (MC-3215 P/M) reliée à un moniteur vidéo Trinitron avec écran couleur Sony. […]
(§6) Les cellules sont d'abord observées en contraste interférentiel et/ou de phase. Quand un champ est sélectionné, l'image est enregistrée, puis sans bouger d'endroit l'observation est réalisée en fluorescence et enregistrée. […]

[3] = system: MRC5, fibroblastes de poumon embryonnaire humain; assay: Type I collagen synthesis by cultured MRC5 fibroblasts, secondary immunofluorescence; assay type: cell-based; conditions: MRC5, results not shown
Excerpt: as §1, §2, §3, §4
8 tubes sont prévus par type cellulaire : 3 témoins et 5 concentrations. […]
as §5, §6

NCCCC[C@H](NC(=O)[C@H](Cc1c[nH]cn1)NC(=O)CNC(=O)[C@H](CCCCN)NC(=O)[C@H](CCCCN)NC(=O)CCCCC(=O)O)C(N)=O [conjugué 7, Adipoyl-Lys-Lys-Gly-His-Lys-NH2] (Adipoyl-KKGHK-NH2)
augmentation de la cicatrisation des plaies par rapport aux témoins ([1]; topical, 0,75 µg par jour): 14,5%
Résistance des cicatrices à l'étirement "dynamométrie" ([1]; topical, 0,75 µg/jour/5 jours, individual treated animals, sacrifice after 9 days): 28,5 Dynes and 26,1 Dynes and 29,3 Dynes and 27,7 Dynes and 28,6 Dynes
Résistance des cicatrices à l'étirement "dynamométrie", Moyenne ([1]; topical, 0,75 µg/jour/5 jours, mean of treated group (control 24,5+/-1,5)): 28,0+/-1,2 Dynes
augmentation de la cicatrisation des plaies par rapport aux témoins ([1]; topical, 75 µg par jour): 59,6%
augmentation de la cicatrisation des plaies par rapport aux témoins ([1]; topical, 7,5 µg par jour): 30,9%
Résistance des cicatrices à l'étirement, Dynes ([1]; topical, 7,5 µg/jour/5 jours (Tableau n° 2), individual treated animals): 32,6 Dynes and 30,4 Dynes and 33,1 Dynes and 32,3 Dynes and 31,8 Dynes
Résistance des cicatrices à l'étirement, Moyenne ([1]; topical, 7,5 µg/jour/5 jours (Tableau n° 2)): 32,0 +/- 1,0 Dynes
Résistance des cicatrices à l'étirement, Dynes ([1]; topical, Tableau n° 3, 7,5 µg/jour/5 jours, individual treated animals): 39,8 Dynes and 41,3 Dynes and 37,5 Dynes and 36,2 Dynes and 40,7 Dynes
Résistance des cicatrices à l'étirement, Moyenne ([1]; topical, Tableau n° 3, 7,5 µg/jour/5 jours): 39,1+/-2,2 Dynes
aspect des cicatrisations au 9ème jour ([1]; topical, day 9): cicatrisation parfaitement plate, avec absence de bourrelets cicatriciels
action cicatrisante ([1]; topical, overall conclusion): action cicatrisante hautement significative
synthèse de collagène de type I ([2]; 10-11 M, fibroblastes de primoculture): stimule très significativement
luminosité moyenne du rouge sur l'ensemble de l'image ([2]; 10-11 M, untreated cells 32,78): 54,8
stimulation de la synthèse de collagène de type 1 ([2]; fibroblastes humains de primocultures, versus untreated cells): +67%
synthèse de collagène de type I [3]: mêmes tendances
